The supplement of paper PMC10307832

What was measured:
Test in all cases: relative viability (nuclei count vs DMSO), 5 days (fraction); higher = more cells survive
Fedratinib + Decitabine = compound: Cc1cnc(Nc2ccc(OCCN3CCCC3)cc2)nc1Nc1cccc(S(=O)(=O)NC(C)(C)C)c1 [Fedratinib] + Nc1ncn([C@H]2C[C@H](O)[C@@H](CO)O2)c(=O)n1 [Decitabine] (partner 2 µM)
Summary of the method: (§1)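 After 5 days of treatment, lung cancer cells in 1536-well plates were fixed and stained in a single step (final 0.05% Triton X-100, 1% formaldehyde, 1 ug/ml Hoechst) and their nuclei counted on 4× images. Treatment had been applied by pin tool the day after seeding as one drug alone or as a fixed anchor-drug dose with five library-drug doses (not always all listed) in √10 steps. Relative viability is the nuclei count of treated wells divided by that of vehicle wells, and values are medians of duplicate plates.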

GW-2580 + Olaparib = compound: COC1=CC=C(C=C1)COC2=C(C=C(C=C2)CC3=CN=C(N=C3N)N)OC [GW-2580] + O=C(c1cc(Cc2n[nH]c(=O)c3ccccc23)ccc1F)N1CCN(C(=O)C2CC2)CC1 [Olaparib] (partner 8 µM)
Summary of the method: as §1

GW-2580 + Lapatinib = compound: COC1=CC=C(C=C1)COC2=C(C=C(C=C2)CC3=CN=C(N=C3N)N)OC [GW-2580] + CS(=O)(=O)CCNCc1ccc(-c2ccc3ncnc(Nc4ccc(OCc5cccc(F)c5)c(Cl)c4)c3c2)o1 [Lapatinib] (partner 2 µM)
Summary of the method: as §1

Fedratinib + OSI-027 = compound: Cc1cnc(Nc2ccc(OCCN3CCCC3)cc2)nc1Nc1cccc(S(=O)(=O)NC(C)(C)C)c1 [Fedratinib] + COc1cccc2cc(-c3nc([C@H]4CC[C@H](C(=O)O)CC4)n4ncnc(N)c34)[nH]c12 [OSI-027] (partner 0.5 µM)
Summary of the method: as §1

Fedratinib + Tozasertib = compound: Cc1cnc(Nc2ccc(OCCN3CCCC3)cc2)nc1Nc1cccc(S(=O)(=O)NC(C)(C)C)c1 [Fedratinib] + Cc1cc(Nc2cc(N3CCN(C)CC3)nc(Sc3ccc(NC(=O)C4CC4)cc3)n2)n[nH]1 [Tozasertib] (partner 0.1 µM)
Summary of the method: as §1

Fedratinib + Pemetrexed = compound: Cc1cnc(Nc2ccc(OCCN3CCCC3)cc2)nc1Nc1cccc(S(=O)(=O)NC(C)(C)C)c1 [Fedratinib] + Nc1nc2[nH]cc(CCc3ccc(C(=O)N[C@@H](CCC(=O)O)C(=O)O)cc3)c2c(=O)[nH]1 [Pemetrexed] (partner 0.2 µM)
Summary of the method: as §1

Row | Cell Line | relative viability (Fedratinib + Decitabine; first compound 0.1 µM) | relative viability (Fedratinib + Decitabine; first compound 0.3162 µM) | relative viability (Fedratinib + Decitabine; first compound 1 µM) | relative viability (GW-2580 + Olaparib; first compound 0.08 µM) | relative viability (GW-2580 + Olaparib; first compound 0.8 µM) | relative viability (GW-2580 + Olaparib; first compound 2.53 µM) | relative viability (GW-2580 + Olaparib; first compound 8 µM) | relative viability (GW-2580 + Lapatinib; first compound 0.08 µM) | relative viability (GW-2580 + Lapatinib; first compound 0.8 µM) | relative viability (GW-2580 + Lapatinib; first compound 2.53 µM) | relative viability (GW-2580 + Lapatinib; first compound 8 µM) | relative viability (Fedratinib + OSI-027; first compound 0.1 µM) | relative viability (Fedratinib + OSI-027; first compound 0.3162 µM) | relative viability (Fedratinib + OSI-027; first compound 1 µM) | relative viability (Fedratinib + Tozasertib; first compound 0.1 µM) | relative viability (Fedratinib + Tozasertib; first compound 0.3162 µM) | relative viability (Fedratinib + Tozasertib; first compound 1 µM) | relative viability (Fedratinib + Pemetrexed; first compound 0.1 µM) | relative viability (Fedratinib + Pemetrexed; first compound 0.3162 µM) | relative viability (Fedratinib + Pemetrexed; first compound 1 µM)
1 | NCI-H1355 | 0.344 | 0.353 | 0.356 | 0.804 | 0.836 | 0.669 | 0.691 | 1.08 | 1.2 | 0.817 | 1.01 | 0.323 | 0.437 | 0.258 | 0.325 | 0.593 | 0.421 | 1.08 | 1.05 | 1.06
2 | NCI-H1395 | 0.628 | 0.738 | 0.622 | 0.426 | 0.427 | 0.489 | 0.425 | 0.994 | 0.95 | 0.88 | 0.912 | 0.553 | 0.694 | 0.545 | 0.623 | 0.874 | 0.653 | 0.728 | 0.952 | 0.665
3 | NCI-H1437 | 0.603 | 0.583 | 0.6 | 0.672 | 0.662 | 0.631 | 0.602 | 0.82 | 0.965 | 0.723 | 0.781 | 0.911 | 0.924 | 0.825 | 0.398 | 0.417 | 0.368 | 0.244 | 0.309 | 0.313
4 | NCI-H1650 | 0.454 | 0.349 | 0.399 | 0.704 | 0.951 | 0.719 | 0.774 | 0.822 | 0.895 | 0.677 | 0.781 | – | 0.69 | 0.515 | – | 0.408 | 0.335 | 0.292 | 0.312 | 0.37
5 | NCI-H1651 | 0.365 | 0.629 | 0.618 | 0.175 | 0.183 | 0.196 | 0.197 | 1.08 | 0.909 | 0.778 | 0.956 | 0.707 | 0.653 | 0.62 | 0.537 | 0.616 | 0.623 | 0.457 | 0.543 | 0.57
6 | NCI-H1666 | 0.638 | 0.746 | 0.7 | 0.758 | 0.757 | 0.794 | 0.737 | 0.601 | 0.757 | 0.847 | 0.431 | 0.837 | 0.793 | 0.898 | 0.558 | 0.599 | 0.514 | 0.793 | 0.869 | 0.831
7 | NCI-H1734 | 0.444 | 0.399 | 0.529 | 0.65 | 0.589 | 0.585 | 0.636 | 1.17 | 1 | 1.01 | 1.01 | 0.607 | 0.588 | 0.536 | 0.262 | 0.278 | 0.243 | 0.442 | 0.435 | 0.356
8 | NCI-H1755 | 0.662 | 0.723 | 0.664 | 0.984 | 0.905 | 0.737 | 0.785 | 1.12 | 1.28 | 0.94 | 0.96 | 0.601 | 0.757 | 0.651 | 0.53 | 0.524 | 0.523 | 0.506 | 0.416 | 0.449
